Assay results from ChEMBL document CHEMBL1201862, “PubChem BioAssay data set” (2004).
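Protocol summary: plate cells (96-well), add compound at 5 concentrations, incubate 48 h, interpolate endpoints linearly. GI50 is the concentration that inhibits growth by half.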 Activity calls are given as the source filed them. Rule as the data show it: active = GI50 up to about 1.1 µM and inactive = higher.

Key:
Experiment in all cases: DTP human tumour cell line panel, 48 h
[1] = test system: 786-0
[2] = test system: A549
[3] = test system: ACHN
[4] = test system: BT-549
[5] = test system: CAKI-1
[6] = test system: CCRF-CEM
[7] = test system: COLO 205
[8] = test system: DU-145
[9] = test system: EKVX
[10] = test system: HCC 2998
[11] = test system: HCT-116
[12] = test system: HCT-15
[13] = test system: HL-60
[14] = test system: HOP-62
[15] = test system: HOP-92
[16] = test system: HT-29
[17] = test system: Hs-578T
[18] = test system: IGROV-1
[19] = test system: K562
[20] = test system: LOX IMVI
[21] = test system: M14
[22] = test system: MCF7
[23] = test system: MDA-MB-231
[24] = test system: MDA-MB-435
[25] = test system: MDA-N
[26] = test system: MOLT-4
[27] = test system: Malme-3M
[28] = test system: NCI-H226
[29] = test system: NCI-H23
[30] = test system: NCI-H460
[31] = test system: NCI-H522
[32] = test system: NCI/ADR-RES
[33] = test system: OVCAR-3
[34] = test system: OVCAR-5
[35] = test system: OVCAR-8
[36] = test system: PC-3
[37] = test system: RPMI-8226
[38] = test system: RXF 393
[39] = test system: SF-268
[40] = test system: SF-295
[41] = test system: SF-539
[42] = test system: SK-MEL-28
[43] = test system: SK-MEL-2
[44] = test system: SK-MEL-5
[45] = test system: SN12C
[46] = test system: SNB-19
[47] = test system: SR
[48] = test system: SW-620
[49] = test system: T47D
[50] = test system: TK-10
[51] = test system: U-251
[52] = test system: UACC-257
[53] = test system: UACC-62
[54] = test system: UO-31
[55] = test system: A498
[56] = test system: KM12
[57] = test system: OVCAR-4
[58] = test system: SK-OV-3
[59] = test system: SNB-75

COc1cc2c(c3oc4c(O)cccc4c(=O)c13)CC(C(C)(O)CO)O2 (centres undefined)
GI50 [1]: 65.6 µM (inactive)
GI50 [2]: > 100 µM (inactive)
GI50 [3]: 59.6 µM (inactive)
GI50 [4]: 34.5 µM (inactive)
GI50 [5]: 39.9 µM (inactive)
GI50 [6]: 21.3 µM (inactive)
GI50 [7]: > 100 µM (inactive)
GI50 [8]: > 100 µM (inactive)
GI50 [9]: > 100 µM (inactive)
GI50 [10]: > 100 µM (inactive)
GI50 [11]: 40.6 µM (inactive)
GI50 [12]: > 100 µM
GI50 [13]: 83.2 µM (inactive)
GI50 [14]: > 100 µM (inactive)
GI50 [15]: 37.2 µM (inactive)
GI50 [16]: 43.8 µM (inactive)
GI50 [17]: 44.3 µM (inactive)
GI50 [18]: 41.7 µM (inactive)
GI50 [19]: 55.6 µM (inactive)
GI50 [20]: 25 µM (inactive)
GI50 [21]: > 100 µM (inactive)
GI50 [22]: 19.5 µM (inactive)
GI50 [23]: 63.7 µM (inactive)
GI50 [24]: > 100 µM (inactive)
GI50 [25]: 94.8 µM (inactive)
GI50 [26]: 15.7 µM (inactive)
GI50 [27]: 47.5 µM (inactive)
GI50 [28]: > 100 µM (inactive)
GI50 [29]: 95.7 µM (inactive)
GI50 [30]: 96.8 µM (inactive)
GI50 [31]: 35.1 µM (inactive)
GI50 [32]: > 100 µM (inactive)
GI50 [33]: > 100 µM (inactive)
GI50 [34]: > 100 µM (inactive)
GI50 [35]: 53.1 µM (inactive)
GI50 [36]: > 100 µM (inactive)
GI50 [37]: > 100 µM (inactive)
GI50 [38]: 7.74 µM (inactive)
GI50 [39]: 46.8 µM (inactive)
GI50 [40]: > 100 µM (inactive)
GI50 [41]: 60.3 µM (inactive)
GI50 [42]: > 100 µM (inactive)
GI50 [43]: 57.4 µM (inactive)
GI50 [44]: 53 µM (inactive)
GI50 [45]: 60.1 µM (inactive)
GI50 [46]: 94.4 µM (inactive)
GI50 [47]: 34.1 µM (inactive)
GI50 [48]: 47.6 µM (inactive)
GI50 [49]: 75.7 µM (inactive)
GI50 [50]: > 100 µM (inactive)
GI50 [51]: 97.9 µM (inactive)
GI50 [52]: > 100 µM (inactive)
GI50 [53]: 27.1 µM (inactive)
GI50 [54]: > 100 µM (inactive)

NC1CCN(c2nc3ccccc3c3c2CCCC3)CC1
GI50 [1]: 3.8 µM (inactive)
GI50 [55]: 10.3 µM (inactive)
GI50 [2]: 9.44 µM (inactive)
GI50 [3]: 8.87 µM (inactive)
GI50 [4]: 12.7 µM (inactive)
GI50 [5]: 5.77 µM (inactive)
GI50 [6]: 4.28 µM (inactive)
GI50 [7]: 1.67 µM (inactive)
GI50 [8]: 11.9 µM (inactive)
GI50 [9]: 5.9 µM (inactive)
GI50 [10]: 1.73 µM (inactive)
GI50 [11]: 4.01 µM (inactive)
GI50 [12]: 5.37 µM
GI50 [13]: 1.77 µM (inactive)
GI50 [14]: 15.1 µM (inactive)
GI50 [15]: 4.99 µM (inactive)
GI50 [16]: 2.11 µM (inactive)
GI50 [17]: 20.5 µM (inactive)
GI50 [18]: 6.41 µM (inactive)
GI50 [19]: 1.62 µM (inactive)
GI50 [56]: 4.07 µM (inactive)
GI50 [20]: 3.69 µM (inactive)
GI50 [21]: 1.99 µM (inactive)
GI50 [22]: 3.07 µM (inactive)
GI50 [23]: 3.43 µM (inactive)
GI50 [24]: 2.2 µM (inactive)
GI50 [25]: 2.97 µM (inactive)
GI50 [26]: 2.09 µM (inactive)
GI50 [27]: 7.41 µM (inactive)
GI50 [28]: 10.2 µM (inactive)
GI50 [29]: 14.1 µM (inactive)
GI50 [30]: 3.5 µM (inactive)
GI50 [31]: 5.73 µM (inactive)
GI50 [32]: 12.2 µM (inactive)
GI50 [33]: 11.9 µM (inactive)
GI50 [57]: 1.38 µM (inactive)
GI50 [34]: 6.32 µM (inactive)
GI50 [35]: 13.2 µM (inactive)
GI50 [36]: 7.89 µM (inactive)
GI50 [37]: 1.8 µM (inactive)
GI50 [38]: 2.33 µM (inactive)
GI50 [39]: 12.5 µM (inactive)
GI50 [40]: 10.1 µM (inactive)
GI50 [41]: 3.33 µM (inactive)
GI50 [42]: 2.73 µM (inactive)
GI50 [43]: 5.12 µM (inactive)
GI50 [44]: 2.57 µM (inactive)
GI50 [58]: 12.6 µM (inactive)
GI50 [45]: 8.67 µM (inactive)
GI50 [46]: 8.67 µM (inactive)
GI50 [59]: 9.93 µM (inactive)
GI50 [48]: 2.75 µM (inactive)
GI50 [49]: 2.18 µM (inactive)
GI50 [50]: 10.7 µM (inactive)
GI50 [51]: 4.59 µM (inactive)
GI50 [52]: 2.1 µM (inactive)
GI50 [53]: 1.95 µM (inactive)
GI50 [54]: 4.05 µM (inactive)

Nc1nc(Nc2ccc(Cl)cc2)sc1C(=O)c1cc2ccccc2oc1=O
GI50 [1]: 19.5 µM (inactive)
GI50 [55]: 19.2 µM (inactive)
GI50 [2]: 98.9 µM (inactive)
GI50 [3]: > 100 µM (inactive)
GI50 [4]: 28 µM (inactive)
GI50 [6]: 7.38 µM (inactive)
GI50 [7]: 59.6 µM (inactive)
GI50 [8]: 74.6 µM (inactive)
GI50 [10]: 41.9 µM (inactive)
GI50 [11]: 23.1 µM (inactive)
GI50 [12]: 34.5 µM
GI50 [13]: 33 µM (inactive)
GI50 [14]: 12.9 µM (inactive)
GI50 [15]: 53.2 µM (inactive)
GI50 [16]: 72.4 µM (inactive)
GI50 [17]: 27.2 µM (inactive)
GI50 [18]: 56.6 µM (inactive)
GI50 [19]: 33.8 µM (inactive)
GI50 [56]: 35.2 µM (inactive)
GI50 [20]: 23.8 µM (inactive)
GI50 [21]: 68.9 µM (inactive)
GI50 [22]: 25 µM (inactive)
GI50 [23]: 37.8 µM (inactive)
GI50 [24]: 23.7 µM (inactive)
GI50 [25]: 37.3 µM (inactive)
GI50 [27]: 19.1 µM (inactive)
GI50 [28]: > 100 µM (inactive)
GI50 [29]: 2.93 µM (inactive)
GI50 [30]: 31 µM (inactive)
GI50 [32]: 38.5 µM (inactive)
GI50 [33]: 4.84 µM (inactive)
GI50 [57]: 27.7 µM (inactive)
GI50 [34]: > 100 µM (inactive)
GI50 [36]: 48.1 µM (inactive)
GI50 [37]: 29.4 µM (inactive)
GI50 [38]: 82.6 µM (inactive)
GI50 [39]: 18.3 µM (inactive)
GI50 [41]: 71.6 µM (inactive)
GI50 [42]: 46.5 µM (inactive)
GI50 [43]: 7.94 µM (inactive)
GI50 [44]: 67.6 µM (inactive)
GI50 [58]: 20.7 µM (inactive)
GI50 [45]: 14.2 µM (inactive)
GI50 [46]: > 100 µM (inactive)
GI50 [59]: 7.55 µM (inactive)
GI50 [48]: 54.1 µM (inactive)
GI50 [49]: 27.7 µM (inactive)
GI50 [50]: > 100 µM (inactive)
GI50 [51]: 18.8 µM (inactive)
GI50 [52]: 69.5 µM (inactive)
GI50 [53]: 55.8 µM (inactive)
GI50 [54]: > 100 µM (inactive)
